We go through 1 compound from ChEMBL document CHEMBL5346971, “Discovery of the First Irreversible HDAC6 Isoform Selective Inhibitor with Potent Anti-Multiple Myeloma Activity” (J Med Chem, 2023).

Data set [1] addresses T1, Class 1 histone deacetylase (Homo sapiens) (UniProt Q13547+O15379+Q92769+Q9BY41). Kind of data set: Irreversible inhibition of class 1 HDAC in human A549 cells assessed as acetyl histone H4 level at 0.4 uM incubated for 5 hrs followed by drug wash-out for 6 hrs by western blot analysis relative to control. The data set is classed as cell-based. (Immunoblotting shows a protein as a band on a membrane.)

In data set [2] the test system is RPMI-8226. Kind of data set: Induction of cell cycle arrest in human RPMI-8226 cells assessed as proportion of cells at S phase at 0.1 uM incubated for 24 hrs by PI staining based flow cytometry (reference value: 46.7%). The class given is functional. On the technique in general: In flow cytometry, cells or beads pass a laser one at a time.
Data set [3] addresses T2, Protein deacetylase HDAC6 (Homo sapiens) (UniProt Q9UBN7).
T2 sequence (whole entry): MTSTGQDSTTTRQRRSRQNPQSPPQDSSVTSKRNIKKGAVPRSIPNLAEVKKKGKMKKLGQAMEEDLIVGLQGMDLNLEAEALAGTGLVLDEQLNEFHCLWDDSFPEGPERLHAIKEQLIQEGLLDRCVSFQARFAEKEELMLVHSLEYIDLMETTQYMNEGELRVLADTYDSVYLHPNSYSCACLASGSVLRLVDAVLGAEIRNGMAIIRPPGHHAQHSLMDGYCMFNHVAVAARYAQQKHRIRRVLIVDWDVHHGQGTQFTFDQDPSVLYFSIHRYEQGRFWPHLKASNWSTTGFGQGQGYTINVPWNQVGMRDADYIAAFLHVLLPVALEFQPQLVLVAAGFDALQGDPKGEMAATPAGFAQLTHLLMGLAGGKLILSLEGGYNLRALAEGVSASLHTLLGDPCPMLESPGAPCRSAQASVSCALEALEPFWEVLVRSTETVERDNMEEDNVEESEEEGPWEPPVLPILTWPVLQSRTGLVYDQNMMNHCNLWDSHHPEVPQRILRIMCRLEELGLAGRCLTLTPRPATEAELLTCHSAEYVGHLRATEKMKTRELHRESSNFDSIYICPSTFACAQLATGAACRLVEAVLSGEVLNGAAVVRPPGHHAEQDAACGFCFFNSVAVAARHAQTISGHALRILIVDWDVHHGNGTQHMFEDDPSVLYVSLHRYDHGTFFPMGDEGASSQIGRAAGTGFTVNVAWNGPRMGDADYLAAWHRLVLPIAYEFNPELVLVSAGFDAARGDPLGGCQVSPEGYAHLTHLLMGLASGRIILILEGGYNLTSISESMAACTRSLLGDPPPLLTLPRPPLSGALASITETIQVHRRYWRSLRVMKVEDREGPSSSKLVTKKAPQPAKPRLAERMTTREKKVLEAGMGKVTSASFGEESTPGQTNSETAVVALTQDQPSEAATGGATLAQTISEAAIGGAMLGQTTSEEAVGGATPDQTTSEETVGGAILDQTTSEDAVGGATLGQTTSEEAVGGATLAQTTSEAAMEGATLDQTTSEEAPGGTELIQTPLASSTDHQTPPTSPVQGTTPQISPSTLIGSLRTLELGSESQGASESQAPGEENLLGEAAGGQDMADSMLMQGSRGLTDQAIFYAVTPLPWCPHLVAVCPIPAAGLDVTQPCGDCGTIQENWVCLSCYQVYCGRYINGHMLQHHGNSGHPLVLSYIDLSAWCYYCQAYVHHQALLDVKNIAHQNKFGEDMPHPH
The data set is described as follows: Irreversible inhibition of HDAC6 in human A549 cells assessed as acetyl alpha-tubulin level at 0.4 uM incubated for 5 hrs followed by drug wash-out for 6 hrs by western blot analysis relative to control. The class given is cell-based.

Data set [4] has as its system MM1.S. The data set is described as follows: Antiproliferative activity against human MM1.S cells assessed as inhibition of cell proliferation incubated for 48 hrs by CCK8 assay. The data set is classed as functional, cell-based. In general terms: Formazan colour is commonly taken as a measure of viable cells.
Data set [5] in a line: Intrinsic clearance in human liver microsomes in presence of NADPH by LC-MS/MS analysis. The class given is ADME, Microsome. Particulars: read-out: CLH.
In data set [6] the test system is RPMI-8226. Kind of data set: Antitumor activity against human RPMI-8226 cells xenografted in NCG mouse assessed as tumor growth inhibition at 10 ug administered intratumorally every 2 days by vernier caliper analysis. The class given is functional. Particulars: dose 10 µg; route it(Intratumoral).
The subject of data set [7] is RPMI-8226. Kind of data set: Antitumor activity against human RPMI-8226 cells xenografted in NCG mouse assessed as T/C ratio at 10 ug administered intratumorally every 2 days by vernier caliper analysis. The class given is functional. Particulars: dose 10 µg; route it(Intratumoral).
Data set [8] deals with T3, Polyamine deacetylase HDAC10 (Homo sapiens, UniProt Q969S8).
T3 sequence (Q969S8 whole entry): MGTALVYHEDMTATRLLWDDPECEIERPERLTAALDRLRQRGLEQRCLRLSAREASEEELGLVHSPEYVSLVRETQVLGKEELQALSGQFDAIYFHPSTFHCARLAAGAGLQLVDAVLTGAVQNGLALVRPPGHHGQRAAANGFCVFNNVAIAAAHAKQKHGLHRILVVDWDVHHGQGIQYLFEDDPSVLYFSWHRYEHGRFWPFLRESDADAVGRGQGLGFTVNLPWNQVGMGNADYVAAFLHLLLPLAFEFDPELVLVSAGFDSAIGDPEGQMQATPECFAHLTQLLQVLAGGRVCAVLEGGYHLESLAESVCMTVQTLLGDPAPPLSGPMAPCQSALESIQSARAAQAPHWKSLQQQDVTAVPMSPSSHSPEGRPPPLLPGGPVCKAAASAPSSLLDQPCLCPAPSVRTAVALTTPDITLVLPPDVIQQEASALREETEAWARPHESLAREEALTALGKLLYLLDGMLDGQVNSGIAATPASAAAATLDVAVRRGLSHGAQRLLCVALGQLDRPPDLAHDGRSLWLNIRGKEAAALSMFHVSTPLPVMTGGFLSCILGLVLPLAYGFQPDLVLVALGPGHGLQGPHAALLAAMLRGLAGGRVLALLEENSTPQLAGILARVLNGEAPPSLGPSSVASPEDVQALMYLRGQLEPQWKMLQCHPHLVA
Kind of data set: Inhibition of N-terminal FLAG-tagged human recombinant HDAC10 (2 to 631 residues) expressed in baculovirus-infected Sf9 cells using Acetyl-Arg-His-Lys(acety1)-Lys-(acety1)-AMC as substrate peincubated with enzyme for 1 hr followed by substrate addition and measured after 30 mins by fluorescence based analysis.

Data set [9] can be described thus: Metabolic stability of the compound in mouse liver microsomes assessed as parent compound remaining measured after 60 mins in presence of NADPH by LC-MS/MS analysis. Particulars: read-out: Stability. The data set is classed as ADME, Microsome.
The nature of data set [10]: Toxicity in NCG mouse xenografted with human RPMI-8226 cells assessed as body weight loss at 10 ug administered intratumorally every 2 days. The settings on record: in vivo, other, 48 h, route it(Intratumoral), dose 10 µg.
For data set [11], the system named is RPMI-8226. Kind of data set: Induction of apoptosis in human RPMI-8226 cells assessed as proportion of early apoptotic cells at 0.5 uM incubated for 24 hrs by AnnexinV-FITC/PI staining based flow cytometry (reference value: 10.63%). The data set is classed as functional, cell-based.
Data set [12] deals with T1, Class 1 histone deacetylase (Homo sapiens). The data set is described as follows: Inhibition of class 1 HDAC in human A549 cells assessed as acetyl histone H4 level at 2 uM incubated for 5 hrs by western blot analysis relative to control. The class given is cell-based.

SMILES strings stand for the structures. The source made the active and inactive calls. The calls are words filed in the database; no cut-off is given here.

T1 sequence (O15379 whole entry, looked up): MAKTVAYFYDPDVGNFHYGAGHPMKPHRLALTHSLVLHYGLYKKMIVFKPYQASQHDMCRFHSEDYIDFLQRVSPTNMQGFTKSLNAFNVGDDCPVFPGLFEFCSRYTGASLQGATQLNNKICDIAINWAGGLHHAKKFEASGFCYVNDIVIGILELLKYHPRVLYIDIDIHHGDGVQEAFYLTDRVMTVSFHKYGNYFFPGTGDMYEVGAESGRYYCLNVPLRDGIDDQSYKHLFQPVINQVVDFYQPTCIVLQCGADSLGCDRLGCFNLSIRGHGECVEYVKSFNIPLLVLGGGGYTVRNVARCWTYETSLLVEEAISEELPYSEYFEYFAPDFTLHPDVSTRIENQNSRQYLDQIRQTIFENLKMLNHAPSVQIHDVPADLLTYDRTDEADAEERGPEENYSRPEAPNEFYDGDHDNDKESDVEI
T1 sequence (Q13547 whole entry, looked up): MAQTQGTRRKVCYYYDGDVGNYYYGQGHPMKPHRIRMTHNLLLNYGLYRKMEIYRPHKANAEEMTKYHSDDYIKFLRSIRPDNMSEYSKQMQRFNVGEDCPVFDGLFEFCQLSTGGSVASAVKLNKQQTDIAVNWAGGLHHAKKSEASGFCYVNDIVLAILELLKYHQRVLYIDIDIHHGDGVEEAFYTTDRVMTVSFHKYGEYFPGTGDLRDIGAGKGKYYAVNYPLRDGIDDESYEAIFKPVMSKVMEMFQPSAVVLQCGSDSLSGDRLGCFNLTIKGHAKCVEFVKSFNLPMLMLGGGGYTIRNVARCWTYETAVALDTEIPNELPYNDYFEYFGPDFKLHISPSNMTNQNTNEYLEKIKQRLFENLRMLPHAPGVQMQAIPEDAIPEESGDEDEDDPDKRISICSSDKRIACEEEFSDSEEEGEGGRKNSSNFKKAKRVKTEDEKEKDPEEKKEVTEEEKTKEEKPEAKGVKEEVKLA
T1 sequence (Q92769 whole entry, looked up): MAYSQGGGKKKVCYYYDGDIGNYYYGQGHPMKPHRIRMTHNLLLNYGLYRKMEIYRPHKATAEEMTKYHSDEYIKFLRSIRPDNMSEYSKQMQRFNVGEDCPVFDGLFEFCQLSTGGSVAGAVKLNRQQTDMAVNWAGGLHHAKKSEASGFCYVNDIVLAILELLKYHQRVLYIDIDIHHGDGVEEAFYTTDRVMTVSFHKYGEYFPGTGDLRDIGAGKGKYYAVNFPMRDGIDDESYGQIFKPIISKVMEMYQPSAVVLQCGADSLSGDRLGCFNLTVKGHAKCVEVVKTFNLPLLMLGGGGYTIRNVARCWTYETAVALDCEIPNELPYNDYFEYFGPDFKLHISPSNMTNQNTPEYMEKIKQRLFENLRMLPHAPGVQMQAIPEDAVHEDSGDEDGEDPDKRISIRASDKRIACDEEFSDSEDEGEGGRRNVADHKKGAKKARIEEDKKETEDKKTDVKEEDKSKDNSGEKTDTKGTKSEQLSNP
T1 sequence (Q9BY41 whole entry, looked up): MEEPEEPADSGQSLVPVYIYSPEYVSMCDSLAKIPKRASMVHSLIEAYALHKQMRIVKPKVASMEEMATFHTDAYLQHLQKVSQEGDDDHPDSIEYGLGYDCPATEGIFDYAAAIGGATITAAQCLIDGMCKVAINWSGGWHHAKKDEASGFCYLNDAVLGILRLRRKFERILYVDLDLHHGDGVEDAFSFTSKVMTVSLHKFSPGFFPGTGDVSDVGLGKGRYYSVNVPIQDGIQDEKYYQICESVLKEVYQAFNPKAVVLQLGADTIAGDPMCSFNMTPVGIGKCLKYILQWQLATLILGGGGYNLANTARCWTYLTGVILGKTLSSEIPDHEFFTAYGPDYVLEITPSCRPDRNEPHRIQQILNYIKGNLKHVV

In general, IC50 refers to the concentration that gives 50% inhibition. A word on the TGI: it is the reduction of tumour growth relative to the control group. What is called T/C is the result in the treated group divided by that in the control group, in per cent. With `O=C(NO)c1ccc(COc2no[n+]([O-])c2S(=O)(=O)c2ccccc2)cc1`, the fold change (FC) in data set [1] came to 1; in [3], 5.1; in data set [12] it was 1.6. In addition, the Activity in [2] is reported as 49.8%; in data set [10], “Non-Toxic”. Besides, the IC50 is 420 nM in [4] and 1800 nM in data set [8]. Moreover, the CLint scaled in data set [5] came to 230 mL/min/kg. Moreover, the TGI in data set [6] was 48%. Further, the T/C in data set [7] was determined as 55%. In addition, the remaining at 1 h in [9] is < 0.35%. Besides, the outcome in data set [11] was Active.
